Results: PMC7101356, “Cross-site and cross-platform variability of automated patch clamp assessments of drug effects on human cardiac currents in recombinant cells” (Scientific Reports, 2020)

Legend:
hERG [1] = target: T1, hERG (Homo sapiens, UniProt Q12809); test: Automated patch clamp, hERG current block (consensus step-ramp protocol); details: for hERG K+ current inhibition, Mean, at minimal concentration: min conc [mol/L]: bep 1.00E-08, cpz 1.00E-07, cis 1.00E-09, dil 3.00E-06, dof 1.00E-09, mex 1.00E-06, ond 3.00E-07, qui 1.00E-07, ran 3.00E-06, sot 1.00E-05, ter 1.00E-08, ver 3.00E-08
late hNav1.5 = target: T2, late hNav1.5 (Homo sapiens, UniProt Q14524); test: Automated patch clamp, late hNav1.5 current block (ATX-II activated); format: cell-based
T2 construct: expressed in transfected cells; host or cells: HEK293 or CHO, depending on site
T2 sequence (Q14524 whole entry): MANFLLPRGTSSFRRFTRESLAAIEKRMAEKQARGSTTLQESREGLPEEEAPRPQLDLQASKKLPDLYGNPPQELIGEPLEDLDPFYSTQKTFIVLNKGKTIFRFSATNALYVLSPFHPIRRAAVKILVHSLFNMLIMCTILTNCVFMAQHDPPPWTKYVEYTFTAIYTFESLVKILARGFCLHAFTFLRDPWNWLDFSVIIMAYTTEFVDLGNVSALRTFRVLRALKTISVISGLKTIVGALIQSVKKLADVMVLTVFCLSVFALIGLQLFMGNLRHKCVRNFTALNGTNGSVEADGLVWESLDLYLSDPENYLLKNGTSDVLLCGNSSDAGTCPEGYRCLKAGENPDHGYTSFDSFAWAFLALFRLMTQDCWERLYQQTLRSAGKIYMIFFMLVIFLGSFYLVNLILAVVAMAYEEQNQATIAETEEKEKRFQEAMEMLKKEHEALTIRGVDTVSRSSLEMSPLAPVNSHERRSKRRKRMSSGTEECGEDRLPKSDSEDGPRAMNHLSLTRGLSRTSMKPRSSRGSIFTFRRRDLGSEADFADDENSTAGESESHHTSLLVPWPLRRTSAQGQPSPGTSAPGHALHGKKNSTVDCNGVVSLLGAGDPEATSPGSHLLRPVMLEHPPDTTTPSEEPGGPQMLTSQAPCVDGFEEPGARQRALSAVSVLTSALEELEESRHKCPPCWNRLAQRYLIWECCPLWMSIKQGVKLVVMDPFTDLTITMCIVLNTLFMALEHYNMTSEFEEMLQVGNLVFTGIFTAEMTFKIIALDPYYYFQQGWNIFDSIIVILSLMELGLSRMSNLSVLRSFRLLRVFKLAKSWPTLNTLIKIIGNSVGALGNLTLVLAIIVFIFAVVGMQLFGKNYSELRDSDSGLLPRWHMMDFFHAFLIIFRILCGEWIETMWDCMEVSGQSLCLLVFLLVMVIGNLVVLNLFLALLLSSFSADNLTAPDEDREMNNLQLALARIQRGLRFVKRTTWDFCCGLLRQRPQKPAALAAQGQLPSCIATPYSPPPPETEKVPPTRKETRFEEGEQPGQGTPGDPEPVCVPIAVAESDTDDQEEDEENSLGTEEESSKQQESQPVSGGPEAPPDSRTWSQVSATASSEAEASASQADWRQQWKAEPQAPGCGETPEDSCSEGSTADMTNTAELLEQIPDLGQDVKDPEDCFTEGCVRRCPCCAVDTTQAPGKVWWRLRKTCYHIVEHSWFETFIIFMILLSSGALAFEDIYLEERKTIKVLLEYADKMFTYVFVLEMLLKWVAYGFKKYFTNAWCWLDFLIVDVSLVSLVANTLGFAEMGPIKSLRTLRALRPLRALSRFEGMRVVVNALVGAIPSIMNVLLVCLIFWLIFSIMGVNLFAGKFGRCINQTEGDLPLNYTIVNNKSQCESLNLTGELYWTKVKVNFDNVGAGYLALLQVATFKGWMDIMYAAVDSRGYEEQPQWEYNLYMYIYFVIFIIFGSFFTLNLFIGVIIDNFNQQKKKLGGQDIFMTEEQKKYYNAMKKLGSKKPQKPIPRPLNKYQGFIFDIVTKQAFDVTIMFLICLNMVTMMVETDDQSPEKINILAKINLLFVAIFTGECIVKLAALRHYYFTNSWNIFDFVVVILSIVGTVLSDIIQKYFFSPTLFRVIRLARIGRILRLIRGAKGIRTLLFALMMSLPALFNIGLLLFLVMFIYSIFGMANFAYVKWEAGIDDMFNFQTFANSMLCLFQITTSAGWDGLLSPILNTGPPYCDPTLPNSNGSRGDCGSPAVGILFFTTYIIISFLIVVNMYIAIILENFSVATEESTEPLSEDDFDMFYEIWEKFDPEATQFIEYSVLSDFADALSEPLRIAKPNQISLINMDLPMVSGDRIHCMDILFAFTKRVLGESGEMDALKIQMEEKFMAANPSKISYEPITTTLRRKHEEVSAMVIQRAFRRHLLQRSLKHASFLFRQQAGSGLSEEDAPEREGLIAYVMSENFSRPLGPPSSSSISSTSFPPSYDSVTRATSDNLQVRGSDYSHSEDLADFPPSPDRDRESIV

[2] = based on CiPA evaluations; cited from earlier work
hERG [3] = target: T1, hERG; test: Automated patch clamp, hERG current block, Milnes protocol (site s06); format: cell-based; set-up: expressed in transfected cells; host or cells: HEK293 or CHO, depending on site (site s06, Milnes protocol: HEK293); details: s06_p4, HEK293, 22–24 °C
From the text: Thus, a single test site (s06) elicited hERG current with a 10-s depolarizing voltage step from −80 mV to 0 mV every 25 s (Milnes protocol, see Milnes et al.[14]).
(§1) The steady state current at each concentration was used to determine the concentration-response relationships. Mean concentration-response data were fitted to a standard sigmoidal four-parameter logistic equation (GraphPad Prism 7; GraphPad Inc., La Jolla, CA) of the form: Y=Bottom+(Top−Bottom)/(1+10^∧(LogIC50−X)∗HillSlope) where Y is the current inhibition (in % of pre-drug control), X is the logarithm of drug concentration, and IC50 is the drug concentration producing half-maximal current inhibition. Curve fitting was performed using the following constraints: Top = 100%, Bottom = 0%, Hill Slope <2. No curve fitting was performed in cases with an obvious lack of a concentration-dependent current inhibition and/or small effect size (approximately ≤20%).
This protocol consists of a set of two 25-s-long pulse protocols, with one protocol (“Pulse”) containing a prolonged 10-s-long depolarizing test pulse (0 mV) followed by a 14-s-long return pulse to −80 mV, and a second protocol “No-Pulse” consisting of the same pulse structure without the depolarizing test pulse[18].

peak hNav1.5 = target: T3, peak hNav1.5 (Homo sapiens, UniProt Q14524); test: Automated patch clamp, peak hNav1.5 current block; format: cell-based
T3 construct: expressed in transfected cells; host or cells: HEK293 or CHO, depending on site
T3 sequence (Q14524 whole entry): as above
Method: Peak current was measured during the depolarizing step to −15 mV. Leak current was measured after applying a saturating concentration of a blocker such as lidocaine (2 mM) at the end of each experiment to completely block hNav1.5 current.
Concentration-response relationships for each test article were independently investigated, i.e., each cell received only one test article, typically evaluating multiple concentrations in a cumulative fashion (lowest to highest concentrations). However, some platforms tested only one concentration per well. Each concentration response was based on a minimum of four concentrations, with a minimum of three wells used for each concentration. In cases of high variability, more cells per concentration were recorded. Prior to drug addition, cells received an addition of vehicle to measure non-test article-related effects such as addition artifacts. At the end of the experiment, a supramaximal concentration of a known inhibitory reference compound was applied to assess leak current and appropriate responsiveness of the test system.
as §1

[4] = site_platform s06_p4, 1.00E-04 mol/L
[5] = site_platform s06_p4, 1.00E-06 mol/L
[6] = site_platform s07_p6, 1.00E-04 mol/L
[7] = site_platform s07_p6, 1.00E-06 mol/L
[8] = site_platform s13_p2, 1.00E-04 mol/L
[9] = site_platform s13_p2, 1.00E-06 mol/L
[10] = site_platform s14_p1, 1.00E-04 mol/L
[11] = site_platform s14_p1, 1.00E-06 mol/L

Cc1cccc(C)c1OCC(C)N (stereo not shown) [mex, mexiletine]
hERG K+ current inhibition, Mean, at minimal concentration (hERG [1]; s18_p1, CHO, 35 °C): -1.2%
hERG K+ current nH, Hill slope (hERG [1]; s19_p3, CHO, room temperature): 0.84
hERG K+ current inhibition, Mean, at maximal concentration (hERG [1]; s19_p3, CHO, room temperature, max conc [mol/L]: bep 3.00E-07, cpz 3.00E-06, cis 3.00E-07, dil 1.00E-04, dof 1.00E-07, mex 1.00E-04, ond 1.00E-05, qui 1.00E-05, ran 1.00E-04, sot 3.00E-04, ter 3.00E-07, ver 1.00E-06): 58.4%
hERG K+ current inhibition, Mean, at minimal concentration (hERG [1]; s19_p3, CHO, room temperature): 4.2%
nH (Hill slope), hERG K+ current inhibition (hERG [1]; site_platform s07_p5): 1.95
nH (Hill slope), hERG K+ current inhibition (hERG [1]; site_platform s10_p3): 1.32
nH (Hill slope), hERG K+ current inhibition (hERG [1]; site_platform s11_p1): 0.41
nH (Hill slope), hERG K+ current inhibition (hERG [1]; site_platform s12_p2): 1.12
nH (Hill slope), hERG K+ current inhibition (hERG [1]; site_platform s13_p2): 1.01
nH (Hill slope), hERG K+ current inhibition (hERG [1]; site_platform s14_p1): 0.63
nH, Hill slope, late hNav1.5 inhibition (late hNav1.5; site_platform s06_p4): 0.97
Late hNav1.5 Na+ current inhibition, Mean (late hNav1.5; [4]): 96.2%
Late hNav1.5 Na+ current inhibition, Mean (late hNav1.5; [5]): 18.9%
nH, Hill slope, late hNav1.5 inhibition (late hNav1.5; site_platform s07_p6): 1.16
Late hNav1.5 Na+ current inhibition, Mean (late hNav1.5; [6]): 89.6%
Late hNav1.5 Na+ current inhibition, Mean (late hNav1.5; [7]): 5.5%
nH, Hill slope, late hNav1.5 inhibition (late hNav1.5; site_platform s13_p2): 0.53
Late hNav1.5 Na+ current inhibition, Mean (late hNav1.5; [8]): 76.8%
Late hNav1.5 Na+ current inhibition, Mean (late hNav1.5; [9]): 26.4%
nH, Hill slope, late hNav1.5 inhibition (late hNav1.5; site_platform s14_p1): 4.08
Late hNav1.5 Na+ current inhibition, Mean (late hNav1.5; [10]): 98.8%
Late hNav1.5 Na+ current inhibition, Mean (late hNav1.5; [11]): -15.4%
TdP Risk Category [2]: Low
hERG K+ current nH, Hill slope (hERG [3]): 1.02
hERG K+ current inhibition, Mean, at maximal concentration (hERG [3]; max conc [mol/L]: bep 3.00E-07, cpz 3.00E-06, cis 3.00E-07, dil 1.00E-04, dof 1.00E-07, mex 1.00E-04, ond 1.00E-05, qui 1.00E-05, ran 1.00E-04, sot 3.00E-04, ter 3.00E-07, ver 1.00E-06): 71.6%
hERG K+ current inhibition, Mean, at minimal concentration (hERG [3]; min conc [mol/L]: bep 1.00E-08, cpz 1.00E-07, cis 1.00E-09, dil 3.00E-06, dof 1.00E-09, mex 1.00E-06, ond 3.00E-07, qui 1.00E-07, ran 3.00E-06, sot 1.00E-05, ter 1.00E-08, ver 3.00E-08): -3.4%
IC50 (hERG [3]; read-out: hERG K+ current log IC50 (converted)): 37.2 µM
hNav1.5 IC50 variability (25/75 percentiles) (peak hNav1.5; across sites and platforms): 4 fold
nH (Hill slope), peak hNav1.5 Na+ current inhibition (peak hNav1.5; site_platform s01_p1): 0.31
Peak hNav1.5 Na+ current inhibition, Mean (peak hNav1.5; site_platform s01_p1, 1.00E-04 mol/L): 89.8%
Peak hNav1.5 Na+ current inhibition, Mean (peak hNav1.5; site_platform s01_p1, 1.00E-06 mol/L): 57.9%
nH (Hill slope), peak hNav1.5 Na+ current inhibition (peak hNav1.5; site_platform s02_p2): 0.99
Peak hNav1.5 Na+ current inhibition, Mean (peak hNav1.5; site_platform s02_p2, 1.00E-04 mol/L): 54.9%
Peak hNav1.5 Na+ current inhibition, Mean (peak hNav1.5; site_platform s02_p2, 1.00E-06 mol/L): -1.5%
nH (Hill slope), peak hNav1.5 Na+ current inhibition (peak hNav1.5; site_platform s04_p3): 0.51
Peak hNav1.5 Na+ current inhibition, Mean (peak hNav1.5; site_platform s04_p3, 1.00E-04 mol/L): 47.7%
Peak hNav1.5 Na+ current inhibition, Mean (peak hNav1.5; site_platform s04_p3, 1.00E-06 mol/L): 8.8%
nH (Hill slope), peak hNav1.5 Na+ current inhibition (peak hNav1.5; site_platform s06_p4): 1.28
Peak hNav1.5 Na+ current inhibition, Mean (peak hNav1.5; [4]): 62.4%
Peak hNav1.5 Na+ current inhibition, Mean (peak hNav1.5; [5]): 2.4%
nH (Hill slope), peak hNav1.5 Na+ current inhibition (peak hNav1.5; site_platform s07_p6): 0.86
Peak hNav1.5 Na+ current inhibition, Mean (peak hNav1.5; [6]): 79.8%
Peak hNav1.5 Na+ current inhibition, Mean (peak hNav1.5; [7]): 7.1%
nH, Hill slope, peak hNav1.5 inhibition (peak hNav1.5; site_platform s10_p3): 0.84
Peak hNav1.5 Na+ current inhibition, Mean (peak hNav1.5; site_platform s10_p3, 1.00E-04 mol/L): 53.9%
Peak hNav1.5 Na+ current inhibition, Mean (peak hNav1.5; site_platform s10_p3, 1.00E-06 mol/L): 6.6%
nH, Hill slope, peak hNav1.5 inhibition (peak hNav1.5; site_platform s11_p1): 0.56
Peak hNav1.5 Na+ current inhibition, Mean (peak hNav1.5; site_platform s11_p1, 1.00E-04 mol/L): 50.8%
Peak hNav1.5 Na+ current inhibition, Mean (peak hNav1.5; site_platform s11_p1, 1.00E-06 mol/L): 10.7%
nH, Hill slope, peak hNav1.5 inhibition (peak hNav1.5; site_platform s12_p2): 0.72
Peak hNav1.5 Na+ current inhibition, Mean (peak hNav1.5; site_platform s12_p2, 1.00E-04 mol/L): 58.7%
Peak hNav1.5 Na+ current inhibition, Mean (peak hNav1.5; site_platform s12_p2, 1.00E-06 mol/L): 4.9%
nH, Hill slope, peak hNav1.5 inhibition (peak hNav1.5; site_platform s13_p2): 0.89
Peak hNav1.5 Na+ current inhibition, Mean (peak hNav1.5; [8]): 50.5%
Peak hNav1.5 Na+ current inhibition, Mean (peak hNav1.5; [9]): 2.3%
nH, Hill slope, peak hNav1.5 inhibition (peak hNav1.5; site_platform s14_p1): 0.84
Peak hNav1.5 Na+ current inhibition, Mean (peak hNav1.5; [10]): 65.7%
Peak hNav1.5 Na+ current inhibition, Mean (peak hNav1.5; [11]): 6.3%
nH, Hill slope, peak hNav1.5 inhibition (peak hNav1.5; site_platform s15_p1): 0.56
Peak hNav1.5 Na+ current inhibition, Mean (peak hNav1.5; site_platform s15_p1, 1.00E-04 mol/L): 88.2%
Peak hNav1.5 Na+ current inhibition, Mean (peak hNav1.5; site_platform s15_p1, 1.00E-06 mol/L): 30.6%
nH, Hill slope, peak hNav1.5 inhibition (peak hNav1.5; site_platform s16_p3): 0.69
Peak hNav1.5 Na+ current inhibition, Mean (peak hNav1.5; site_platform s16_p3, 1.00E-04 mol/L): 43.0%
Peak hNav1.5 Na+ current inhibition, Mean (peak hNav1.5; site_platform s16_p3, 1.00E-06 mol/L): 5.6%
nH, Hill slope, peak hNav1.5 inhibition (peak hNav1.5; site_platform s17_p1): 0.83
Peak hNav1.5 Na+ current inhibition, Mean (peak hNav1.5; site_platform s17_p1, 1.00E-04 mol/L): 75.6%
Peak hNav1.5 Na+ current inhibition, Mean (peak hNav1.5; site_platform s17_p1, 1.00E-06 mol/L): 10.3%
nH, Hill slope, peak hNav1.5 inhibition (peak hNav1.5; site_platform s18_p1): 0.98
Peak hNav1.5 Na+ current inhibition, Mean (peak hNav1.5; site_platform s18_p1, 1.00E-04 mol/L): 83.9%
Peak hNav1.5 Na+ current inhibition, Mean (peak hNav1.5; site_platform s18_p1, 1.00E-06 mol/L): 6.1%
nH, Hill slope, peak hNav1.5 inhibition (peak hNav1.5; site_platform s19_p3): 0.51
Peak hNav1.5 Na+ current inhibition, Mean (peak hNav1.5; site_platform s19_p3, 1.00E-04 mol/L): 55.6%
Peak hNav1.5 Na+ current inhibition, Mean (peak hNav1.5; site_platform s19_p3, 1.00E-06 mol/L): 12.4%
